Among the data in ChEMBL document CHEMBL1148077, “Stellettin A, a new triterpenoid pigment from the marine sponge Stelletta tenuis” (1994) are EC50 values, retold here.

In this assay the test system is P388. Put plainly: Cytotoxicity against mouse P388 cells. The following applies: read-out: ED50 (the source's name). The format is functional.

Converted amounts (≈) assume the structure as drawn.

As for `C\C(=C/C=C/C(C)=C1/C(=O)C[C@H]2[C@@]3(C)CCC(=O)C(C)(C)[C@@H]3CC[C@]12C)c1ccc(C)c(=O)o1` [STELLETIN A], the EC50 turned out to be 1 ng/mL (≈ 2.16 nM).
